Series [1] concerns SARS-CoV-2 Beta, GH(B.1.351), hCoV-19/Korea/KDCA55905/2021. The note with it: Vero cells.
Series [2] has as its system SARS-CoV-2 Omicron, GRA(B.1.1.529), hCoV-19/Korea/KDCA447321/2021. The conditions noted are these: Vero cells.
Series [3] relates to SARS-CoV-2 Alpha, GR(B.1.1.7), hCoV-19/Korea/KDCA51463/2021. Description: microbe, parasite or virus in culture. The conditions noted are these: Severe acute respiratory syndrome coronavirus 2, Vero.
For series [4], the system named is SARS-CoV-2 Beta, GH(B.1.351), hCoV-19/Korea/KDCA55905/2021. Description: microbe, parasite or virus in culture. The note with it: Severe acute respiratory syndrome coronavirus 2, Vero.
The test system of series [5] is SARS-CoV-2 Omicron, GRA(B.1.1.529), hCoV-19/Korea/KDCA447321/2021. The series can be described thus: microbe, parasite or virus in culture. The conditions noted are these: Severe acute respiratory syndrome coronavirus 2, Vero.
The test system of series [6] is SARS-CoV-2 Alpha, GR(B.1.1.7), hCoV-19/Korea/KDCA51463/2021. The conditions noted are these: Vero cells.
Series [7] deals with SARS-CoV-2 Delta, G(B.1.617.2), hCoV-19/Korea/KDCA119861/2021. Description: microbe, parasite or virus in culture. The conditions noted are these: Severe acute respiratory syndrome coronavirus 2, Vero.
Series [8] has as its system SARS-CoV-2 Gamma, GR(P.1), hCoV-19/Korea/KDCA95637/2021. Description: microbe, parasite or virus in culture. The note with it: Severe acute respiratory syndrome coronavirus 2, Vero.
For series [9] the test system is unchanged. The note with it: for SI, ratio of CC50 to EC50: Gamma, Vero cells.
In series [10] the test system is SARS-CoV-2 Delta, G(B.1.617.2), hCoV-19/Korea/KDCA119861/2021. The conditions noted are these: Vero cells.

Where only a bound is given, the exact number is not on record here.

Usually EC50 stands for the concentration at which the effect is half-maximal. A high value points to lower potency in that assay. In the case of `CCOC(=O)C1(c2ccccc2)CCN(CCC(C#N)(c2ccccc2)c2ccccc2)CC1` [Diphenoxylate, diphenoxylate], the “SI, ratio of CC50 to EC50” value was more than 20.4 in series [1]; more than 31.3 in series [2]; more than 52.5 in [6]; more than 68.0 in series [9]; more than 36.2 in series [10]. Also, the EC50 in series [3] was 1.9 ± 0.2 µM; in [4], 4.9 ± 0.3 µM; in series [5] it was 3200 ± 600 nM; in series [7], 2.8 ± 0.6 µM; in [8], 1.5 ± 0.1 µM. Besides, the “potency relative to remdesivir (times more potent)” value in series [9] is “up to 6.5 times”.
Turning to `CCC(CC)COC(=O)[C@H](C)N[P@](=O)(OC[C@H]1O[C@@](C#N)(c2ccc3c(N)ncnn23)[C@H](O)[C@@H]1O)Oc1ccccc1` [RDV, remdesivir], the “SI, ratio of CC50 to EC50” value in [1] was more than 8.2; in series [2], more than 60.7; in series [9], more than 10.3; in series [10], more than 23.6. Moreover, the EC50 in series [3] was determined as 7 ± 1 µM; in series [4], 12.2 ± 0.4 µM; in [5] it was 1600 ± 500 nM; in [7] it was 4.2 µM; in series [8], 9.7 ± 0.7 µM.

Values taken from article PMC11620506, “Inhibition of endocytic uptake of severe acute respiratory syndrome coronavirus 2 and endo-lysosomal acidification by diphenoxylate” (Antimicrobial Agents and Chemotherapy, 2024).
